Experimental data as given in US5614213A, “Use of estriol for treatment of climacteric osteoporosis” (priority 1992, dated 1997).
Entries after “also recorded” stand apart in the source; their conditions may differ.

Legend:
[1] = test system: castrated (OVX) Wistar rats; assay: Hydroxyproline excretion in 24-h urine of ovariectomized rats after estriol application; format: in vivo; conditions: for Hydroxyproline content in the urine: mean, n = 8
Excerpt: (§1) Investigation of the osteoporotic action of estriol on ovariectomized rats
(§2) 11 week-old female Wistar rats lose a considerable proportion of their bone substance in two weeks after ovariectomy. It was to be investigated whether this effect is preventable through estriol. For this, this hormone was to be applied such that constant hormone levels are established over the whole test period. […] The assumption that estriol has insufficient activity as a partial estrogen antagonist at the bone was also to be examined as another possibility.
(§3) Female Wistar rats from the experimental animal breeders "Biomodelle GmbH", O-1291 Schonwalde (breed: Wistar) were supplied at ages from nine to ten weeks and kept under conventional conditions at a room temperature of 22° C.[…] and under a light regime (14 h light and 10 h dark) in PVC shells with fitted wire covers.
(§4) The animals received standard formulation R 13 feed and drinking water ad libitum.
(§5) At the age of 11 weeks (body weight approximately 220 g) the animals were used in the experiment.
(§6) Subcutaneous application osmotic pumps. Model: Alzet 2002, capacity of the reservoir 200 μl. Throughflow 0.5 μl/hour. Solution of the test substance in propylene glycol.
(§7) The duration of the whole experiment was 3 weeks, 1 week before castration and two weeks (15 days) after castration.
In the week prior to castration, characteristic parameters. were determined "as starting values" prior to the estrogen-specific bone degradation through ovariectomy (hydroxyproline content in the 24-h-urine, hydroxyproline content and estriol concentration in the serum).
For the determination of the hydroxyproline content in the urine, the collective urine was obtained over 24 hours. For this, the animals were individually placed once a week in diuresis cages which permitted a sufficiently clean collection of urine, separate from faeces. The hydroxyproline content was then determined in the collective urine of each individual animal.
(§8) Hydroxyproline is released during the decomposition of collagen which also accounts for a considerable proportion of the bone substance.

[2] = conjugation with glucuronic acid or sulphate in the liver; cited from earlier work
[3] = test system: castrated (OVX) Wistar rats; assay: Hydroxyproline level in serum of ovariectomized rats after estriol application; format: in vivo; conditions: for Hydroxyproline content in the serum: mean
Excerpt: as §1, §2, §3, §4, §5, §6, §7
In the week prior to castration, characteristic parameters. were determined "as starting values" prior to the estrogen-specific bone degradation through ovariectomy (hydroxyproline content in the 24-h-urine, hydroxyproline content and estriol concentration in the serum). […]
as §8

osteoporosis = conditions: official statement / text book; cited from earlier work
femur bones = assay: Trabecular proportion of the bone volume (femur histology) after ovariectomy; format: in vivo, Wistar rats
Excerpt: as §1, §2, §3, §4, §5, §6, §7
At the end of the experiment the animals were killed and the femur bones fixed for histological investigations according to standard methods, cut with a hard cut microtome and investigated qualitatively and quantitatively as regards morphological features.
The effect on the proportion of trabecular structures in the surface of bone sections was determined as a parameter of the osteoprotective effect of estriol.

uterus = conditions: administered once to ovariectomized rats; cited from earlier work
receptor = conditions: in combination with "strong" estrogens; cited from earlier work
mastocarcinomas = conditions: mastocarcinoma; induction and promotion phases; cited from earlier work
bones = conditions: dosage quantities of 12 mg/day oral; cited from earlier work
[4] = OVX + D1, estriol 0.1 μg/24 hrs, day 7 after castration
[5] = OVX + D1, estriol 0.1 μg/24 hrs, day 12 after castration
[6] = OVX + D1, estriol 0.1 μg/24 hrs, day 13 after castration
[7] = OVX + D1, estriol 0.1 μg/24 hrs, day 14 after castration
[8] = OVX + D1, estriol 0.1 μg/24 hrs, day 15 after castration
[9] = OVX + D2, estriol 1.0 μg/24 hrs, day 7 after castration
[10] = OVX + D2, estriol 1.0 μg/24 hrs, day 12 after castration
[11] = OVX + D2, estriol 1.0 μg/24 hrs, day 13 after castration
[12] = OVX + D2, estriol 1.0 μg/24 hrs, day 14 after castration
[13] = OVX + D2, estriol 1.0 μg/24 hrs, day 15 after castration
[14] = OVX + D3, estriol 10.0 μg/24 hrs, day 7 after castration
[15] = OVX + D3, estriol 10.0 μg/24 hrs, day 12 after castration
[16] = OVX + D3, estriol 10.0 μg/24 hrs, day 13 after castration
[17] = OVX + D3, estriol 10.0 μg/24 hrs, day 14 after castration
[18] = OVX + D3, estriol 10.0 μg/24 hrs, day 15 after castration
[19] = OVX + D4, estriol 50.0 μg/24 hrs, day 7 after castration
[20] = OVX + D4, estriol 50.0 μg/24 hrs, day 15 after castration

## C[C@]12CC[C@@H]3c4ccc(O)cc4CC[C@H]3[C@@H]1C[C@@H](O)[C@@H]2O [estriol]
[1]; OVX + D1, estriol 0.1 μg/24 hrs, day 0 after castration (starting value)
  Hydroxyproline content in the urine: 1,46 μmol/1 d
[1]; [4]
  relative change of hydroxyproline content in the urine: 56,95%
  Hydroxyproline content in the urine: 2,15 μmol/1 d
[1]; [5]
  relative change of hydroxyproline content in the urine: 84,62%
  Hydroxyproline content in the urine: 2,41 μmol/1 d
[1]; [6]
  relative change of hydroxyproline content in the urine: 79,03%
  Hydroxyproline content in the urine: 2,51 μmol/1 d
[1]; [7]
  relative change of hydroxyproline content in the urine: 59,47%
  Hydroxyproline content in the urine: 2,11 μmol/1 d
[1]; [8]
  relative change of hydroxyproline content in the urine: 40,95%
  Hydroxyproline content in the urine: 2,00 μmol/1 d
[1]; OVX + D2, estriol 1.0 μg/24 hrs, day 0 after castration (starting value)
  Hydroxyproline content in the urine: 1,63 μmol/1 d
[1]; [9]
  relative change of hydroxyproline content in the urine: 15,48%
  Hydroxyproline content in the urine: 1,94 μmol/1 d
[1]; [10]
  relative change of hydroxyproline content in the urine: 74,86%
  Hydroxyproline content in the urine: 2,97 μmol/1 d
[1]; [11]
  relative change of hydroxyproline content in the urine: 42,71%
  Hydroxyproline content in the urine: 2,40 μmol/1 d
[1]; [12]
  relative change of hydroxyproline content in the urine: 37,83%
  Hydroxyproline content in the urine: 2,31 μmol/1 d
[1]; [13]
  relative change of hydroxyproline content in the urine: 10,69%
  Hydroxyproline content in the urine: 1,83 μmol/1 d
[1]; OVX + D3, estriol 10.0 μg/24 hrs, day 0 after castration (starting value)
  Hydroxyproline content in the urine: 1,67 μmol/1 d
[1]; [14]
  relative change of hydroxyproline content in the urine: 47,88%
  Hydroxyproline content in the urine: 0,88 μmol/1 d
[1]; [15]
  relative change of hydroxyproline content in the urine: -40,47%
  Hydroxyproline content in the urine: 0,98 μmol/1 d
[1]; [16]
  relative change of hydroxyproline content in the urine: -36,63%
  Hydroxyproline content in the urine: 1,04 μmol/1 d
[1]; [17]
  relative change of hydroxyproline content in the urine: -48,91%
  Hydroxyproline content in the urine: 0,94 μmol/1 d
[1]; [18]
  relative change of hydroxyproline content in the urine: -28,45%
  Hydroxyproline content in the urine: 1,16 μmol/1 d
[1]; [19]
  relative change of hydroxyproline content in the urine: -34,52%
[1]; OVX + D4, estriol 50.0 μg/24 hrs, day 12 after castration
  relative change of hydroxyproline content in the urine: -33,26%
[1]; OVX + D4, estriol 50.0 μg/24 hrs, day 13 after castration
  relative change of hydroxyproline content in the urine: -35,04%
[1]; OVX + D4, estriol 50.0 μg/24 hrs, day 14 after castration
  relative change of hydroxyproline content in the urine: -38,21%
[1]; [20]
  relative change of hydroxyproline content in the urine: -40,43%
[1]; result in words, Table 3
  effect on increase of hydroxyproline excretion in the urine after castration: can also be alleviated through treatment with estriol
[2]
  inactivation of estriol: inactivated extremely quickly
[3]; OVX + D1, estriol 0.1 μg/24 hrs, day 0 after castration (starting value), n = 8
  Hydroxyproline content in the serum: 30,55 μmol/1 l
[3]; [4]
  relative change of hydroxyproline content in the serum: 18,44%
[3]; OVX + D1, estriol 0.1 μg/24 hrs, day 7 after castration, n = 8
  Hydroxyproline content in the serum: 35,31 μmol/1 l
[3]; [8]
  relative change of hydroxyproline content in the serum: 11,66%
[3]; OVX + D1, estriol 0.1 μg/24 hrs, day 15 after castration, n = 8
  Hydroxyproline content in the serum: 33,36 μmol/1 l
[3]; OVX + D2, estriol 1.0 μg/24 hrs, day 0 after castration (starting value), n = 8
  Hydroxyproline content in the serum: 30,74 μmol/1 l
[3]; [9]
  relative change of hydroxyproline content in the serum: 8,82%
[3]; OVX + D2, estriol 1.0 μg/24 hrs, day 7 after castration, n = 8
  Hydroxyproline content in the serum: 33,20 μmol/1 l
[3]; [13]
  relative change of hydroxyproline content in the serum: 0,39%
[3]; OVX + D2, estriol 1.0 μg/24 hrs, day 15 after castration, n = 8
  Hydroxyproline content in the serum: 30,51 μmol/1 l
[3]; OVX + D3, estriol 10.0 μg/24 hrs, day 0 after castration (starting value), n = 8
  Hydroxyproline content in the serum: 28,16 μmol/1 l
[3]; [14]
  relative change of hydroxyproline content in the serum: -3,56%
[3]; OVX + D3, estriol 10.0 μg/24 hrs, day 7 after castration, n = 8
  Hydroxyproline content in the serum: 26,25 μmol/1 l
[3]; [18]
  relative change of hydroxyproline content in the serum: -23,81%
[3]; OVX + D3, estriol 10.0 μg/24 hrs, day 15 after castration, n = 8
  Hydroxyproline content in the serum: 20,90 μmol/1 l
[3]; OVX + D4, estriol 50.0 μg/24 hrs, day 0 after castration (starting value), n = 9
  Hydroxyproline content in the serum: 28,26 μmol/1 l
[3]; [19]
  relative change of hydroxyproline content in the serum: -8,87%
[3]; OVX + D4, estriol 50.0 μg/24 hrs, day 7 after castration, n = 9
  Hydroxyproline content in the serum: 25,45 μmol/1 l
[3]; [20]
  relative change of hydroxyproline content in the serum: -38,62%
[3]; OVX + D4, estriol 50.0 μg/24 hrs, day 15 after castration, n = 9
  Hydroxyproline content in the serum: 17,33 μmol/1 l
[3]; result in words, Table 2
  effect on increase of hydroxyproline in the blood after ovariectomy: this increase was suppressed through treatment with estriol in dose-dependent manner
osteoporosis
  effectiveness for osteoporosis prophylaxis: ineffectiveness; also recorded: Not effective for osteoporosis prophylaxis
Femur bones; OVX + 0.1 microg E3/day
  % trabecular proportion of the bone volume: 16.89%
Femur bones; OVX + 1.0 microg E3/day
  % trabecular proportion of the bone volume: 17.46%
Femur bones; OVX + 10.0 microg E3/day
  % trabecular proportion of the bone volume: 24.79%
Femur bones; OVX + 50.0 microg E3/day
  % trabecular proportion of the bone volume: 26.64%
Femur bones; overall evaluation, uniform levels of active ingredient
  osteoprotective potential: has an osteoprotective potential
Femur bones; result in words, Table 4
  effect on decomposition of bone mass after castration: alleviated by estriol in a dose-dependent manner
uterus
  stimulation of uterine weights: does not significantly stimulate uterine weights
receptor
  anti-estrogen action: proved to have an anti-estrogen action
mastocarcinomas
  anti-tumour effect: can prevent or suppress the development of mastocarcinomas; also recorded: proven anti-tumour effect
bones
  osteoprotective effectiveness in the bones: developed no osteoprotective effectiveness in the bones
